Measured values: patent publication US20200129523A1, “SHIP INHIBITION TO INDUCE EXPRESSION OF GRANULOCYTE COLONY STIMULATING FACTOR IN A SUBJECT” (THE RESEARCH FOUNDATION FOR THE STATE UNIVERSITY OF NEW YORK, priority 2014, published 2020)

How the values were obtained:
PDGFRα+CD51+ MSC = assay: In vivo MSC immunophenotyping by flow cytometry; design: species or system mice; conditions: K118 10 mg/kg i.p. 5 days, vs H2O
Experimental: PDGFRα^+CD51^+ MSC were detected using methods and reagents as described by Iyer et al.^8 Femurs, tibias, humeri, ulnas, radii, and pelvis were dissected; the bone fragments were cleaned, cut into tiny pieces, and then crushed using a mortar and pestle. The bone chips were then washed several times in HBSS supplemented with 2% heat-inactivated FBS (HBSS/2% HI-FBS) and HBSS only, and then spun at 350×g for 5 mins. The pellet was re-suspended in 3 mg/mL type I collagenase (Worthington) and 15 μg/mL DNAase (Sigma, St. Louis, Mo.) dissolved in HBSS and incubated at 37° C. for 30 min at 110 rpm, this step was repeated twice. Following incubation, mononuclear cells were obtained using a Ficoll gradient ([…] and Histopaque-1077; Sigma, St. Louis, Mo.), and were then used for further analysis. Cells were stained with antibodies as described in Iyer et al.^8

immunoregulatory cells = assay: Preliminary oral K118 study: immunoregulatory cells; assay type: in vivo, wt C57BL/6 mice; conditions: K118 orally 10 mg/kg in water
Experimental: K118 was administered in water, and in wt C57BL/6 mice.

HSC compartment = assay: Flow cytometric quantitation of hematopoietic stem/progenitor populations and cellularity in bone marrow of treated mice; assay type: in vivo, C57BL/6NTac mice; conditions: K118 10 mg/kg i.p. 5 days, vs H2O
Experimental: HSC phenotype, cell-cycle progression, G-CSF neutralization, and CXCR4 MFI determination by FACS analysis was performed on whole bone marrow (WBM) cells harvested from a tibia and femur pair obtained from SHIPi and vehicle treated 8-12 week old male C57BL/6NTac mice (Taconic). Generation of the CD45.1×CD45.2 strain utilized in the CRU assay were obtained by intercrossing C57BL6/J (CD45.2) and B6.SJL (CD45.1), as previously described.^5 The SUNY Upstate Medical University Committee for Humane Use of Animals approved all animal experiments.
In vivo administration of 3AC was previously described.^14 Briefly, 3AC is resuspended as an emulsion in 0.3% Klucel/H20. Mice were treated via intraperitoneal injection every 24 hrs for 5 days at a final concentration of 26.5 mg/kg. Analysis and transplants were performed on day 6. The 3AC derivative K118 (Soluble SHIPi) was suspended in pure H2O and heated at 100° C. for ˜15 min to allow the compound to enter solution. The delivery method was the same as with 3AC, however, the mice were treated for 5 days at a final concentration of 10 mg/kg. Vehicle cohorts for 3AC were treated with 0.3% Klucel/H20 and K118 were treated with pure H2O.
Cell isolation was performed according to method detailed in Hazen et al.^6 Briefly, WBM was flushed from both femurs and tibias per mouse with a 25-gauge needle, red blood cell lysed (eBioscience), and resuspended in staining media comprised of Hanks Buffered Saline Solution (HBSS), 2% heat inactivated fetal bovine serum (FBS), and 10 mM HEPES (Sigma). The cells harvested for the CRU assay were flushed, red blood cell lysed, washed, and resuspended in sterile phosphate buffered saline (PBS). Peripheral blood mononuclear cells (PBMC) were collected via submandibular bleed in EDTA Micorvette tubes (SARSTEDT).
All antibodies were from BD Biosciences or eBioscience. All WBM, PBMC and BM derived MSC cell populations were Fc blocked on ice for 10 min prior to antibody staining. Global reconstitution was determined by staining PBMC with CD45.1-PeCy7 and CD45.2-APC. Multi-lineage repopulation was determined by staining PBMC with CD3-FITC (145-2C11), CD19-PerCP5.5 (1D3), Mac1-PE (M1/70), Gr1-Alexa700 (RB6-8C5) and NK1.1-APC-Cy7 (PK136). The Lin−cKit+Sca1+CD34−Flk2− (LSKF34−) phenotype was utilized to determine frequency of LT-HSC, ST-HSC, and MPP; the stain was comprised of Lin-PerCP 5.5, cKit-APC (2B8), Sca1-PeCy7 (D7), CD34-FITC (RAM34), Flk2-PE (A2F10). LSKF-CXCR4 stain was used to determine surface expression of the homing marker CXCR4. All cells were washed twice with staining media, resuspended in staining media plus DAPI for dead cell exclusion, and then analyzed on a flow cytometer LSRII (BD Biosciences). All flow cytometry data was analyzed using FlowJo (9.4.3) software.

C[C@@]12CCC[C@H]1[C@@H]1CC[C@H]3C[C@@H](N)CC[C@]3(C)[C@H]1CC2.Cl [K118, 3β-amino-5α-androstane hydrochloride]
MSC numbers in BM (PDGFRα+CD51+ MSC): significant expansion | neutrophil numbers (immunoregulatory cells): trend for increased | frequency of natural T regulatory cells (nTreg, CD4+CD25+FoxP3+) (immunoregulatory cells; mesenteric lymph node (mLN)): Significant increases | frequency of myeloid derived suppressor cells (MDSC, Gr1+Mac1+) (immunoregulatory cells; spleen): significant increase | frequency of natural T regulatory cells (nTreg, CD4+CD25+FoxP3+) (immunoregulatory cells; spleen): Significant increases | BM cellularity (HSC compartment): significant increase | LT-HSC in BM (HSC compartment): significant increases | MPP in BM (HSC compartment): significant increases | ST-HSC in BM (HSC compartment): significant increases
